Results on 25 compounds are retold here after PubChem BioAssay (NCI).

Holding throughout (assay): growth of human tumour cells (NCI), 48 h
For assay [1], the system named is SF-295 CNS.
The test system of assay [2] is HCT-15 colon.
Assay [3] deals with SF-268 CNS.
The test system of assay [4] is COLO 205 colon.
Assay [5] has as its system HCC-2998 colon.
Assay [6] concerns CCRF-CEM leukemia.
For assay [7], the system named is SK-OV-3 ovarian.
Assay [8] relates to NCI-H522 lung.
Assay [9] relates to RXF 393 renal.
For assay [10], the system named is NCI-H23 lung.

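Tested at 5 concentrations; 48 h exposure; 96-well plates; endpoints linearly interpolated, else capped at highest concentration. The concentration for full growth arrest is given as TGI.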

`CC(C)=CCCC1(Sc2ccccc2)C(=O)OCC1C=C(C)C` (stereo not given): the TGI is above 100 µM in assay [1]; above 100 µM in assay [2]; above 100 µM in assay [3]; 50 µM in assay [4]; above 100 µM in assay [5]; above 100 µM in assay [6]. The TGI in [7] was above 100 µM; in assay [8], 47.4 µM; in [9] it was 45.1 µM; in assay [10] it was above 100 µM.
With `CC(=O)NC(C)c1ccc(N=NN2CCCC2)cc1` (stereo not given), the TGI in assay [1], in assay [2], in [3], in [4], in assay [5] and in assay [6] was above 100 µM in each case. The TGI in [7], in assay [8], in [9] and in assay [10] was above 100 µM in each case.
As to `O=C(NN1C(=O)CSC1c1ccco1)c1ccncc1` (stereo not given), the TGI in assay [1], in assay [2], in assay [3], in [4], in [5] and in [6] was above 100 µM each time. Besides, the TGI in assay [7], in assay [8], in [9] and in [10] was above 100 µM in each case.
In the case of `CC1CC(=O)Nc2ccc(N=NN(C)C)cc2N1C=O` (stereo not given), the TGI in [1], in [2], in [3], in assay [4], in assay [5] and in assay [6] was above 100 µM throughout. Also, the TGI in assay [7], in assay [8], in [9] and in assay [10] was above 100 µM throughout.
With `COC(=O)c1c(O)ccc2c1c1c(n2Cc2ccccn2)C(=O)c2ccccc2C1=O`, the TGI is 70.6 µM in assay [1]; above 100 µM in assay [2]; above 100 µM in [3]; 34.3 µM in [4]; 35 µM in assay [5]; above 100 µM in assay [6]. Further, the TGI in [7] is 61.1 µM; in [8], 95.6 µM; in [9], above 100 µM; in [10], above 100 µM.
For `O=C(Cc1ccccc1)N=Nc1c(O)[nH]c2ccccc12`, the TGI is above 100 µM in assay [1]; above 100 µM in assay [2]; 70.7 µM in [3]; above 100 µM in assay [4]; above 100 µM in assay [5]; above 100 µM in assay [6]. The TGI in assay [7], in assay [8], in assay [9] and in assay [10] was above 100 µM in each case.
As to `O=C(CCc1ccc(O)c(O)c1)NCCc1ccc(O)c(O)c1`, the TGI in assay [1] was above 100 µM; in assay [2], above 100 µM; in [3] it was above 100 µM; in [4], above 100 µM; in [5], above 100 µM; in assay [6] it was 78.3 µM. The TGI in assay [7], in [8], in [9] and in assay [10] was above 100 µM each time.
`O=C1c2ccccc2-c2nnc(-c3ccc(Cl)cc3)cc21`: the TGI in assay [1], in assay [2], in assay [3], in [4], in assay [5] and in [6] was above 10 µM in each case. Besides, the TGI in assay [7], in assay [8], in assay [9] and in [10] was above 10 µM throughout.
For `c1ccc(CCN2CCN=C2Cc2ccccc2)cc1`, the TGI was above 100 µM in assay [1]; above 100 µM in assay [2]; above 100 µM in assay [3]; above 100 µM in assay [4]; 38.2 µM in [5]; above 100 µM in [6]. Further, the TGI in assay [7], in [8], in assay [9] and in assay [10] was above 100 µM in each case.
For the compound `Clc1cc(OCC23CC4CC(CC(C4)C2)C3)nc(OCC23CC4CC(CC(C4)C2)C3)n1`, the TGI in [1], in [2], in assay [3], in assay [4], in assay [5] and in assay [6] was above 100 µM throughout. Also, the TGI in assay [7], in assay [8], in assay [9] and in [10] was above 100 µM throughout.
Take `Cc1[nH]c(=O)nc2nc3ccc(Cl)cc3c(NC(C)(CO)CO)c12`: the TGI in assay [1], in assay [2], in assay [3], in assay [4], in assay [5] and in assay [6] was above 100 µM each time. Further, the TGI in assay [7] was above 100 µM; in [8], above 67.9 µM; in assay [9], 88.8 µM; in assay [10], above 100 µM.
Turning to `NC(=O)C[C@H](NC(=O)C1(NC(=O)[C@H](Cc2ccc(CP(=O)(O)O)cc2)NC(=O)C(=O)O)CCCCC1)C(=O)NCCCc1cccc2ccccc12`, the TGI in assay [1], in assay [2], in assay [3], in assay [4], in [5] and in assay [6] was above 10 µM each time. The TGI in assay [7], in assay [8], in assay [9] and in assay [10] was above 10 µM each time.
Take `Cc1nc2c(Cl)cc(Cl)cc2c(Cl)c1CCCl`: the TGI in assay [1], in assay [2], in assay [3], in [4], in [5] and in assay [6] was above 100 µM each time. Also, the TGI in assay [7] was above 100 µM; in assay [8] it was above 100 µM; in assay [9] it was 79.3 µM; in assay [10] it was above 100 µM.
Regarding `CCCCC1(N=[N+]=[N-])C(=O)C2C=CC=C3c4ccccc4N(C1=O)C32` (stereo not given), the TGI in assay [1], in assay [2], in assay [3], in [4], in assay [5] and in [6] was above 31.6 µM each time. Besides, the TGI in [7] is above 31.6 µM; in [8] it was 25.1 µM; in assay [9] it was 23.7 µM; in assay [10], above 31.6 µM.
For the compound `COc1ccc(N2C(N)=C(C#N)C(C#N)(C#N)C2c2cccc([N+](=O)[O-])c2)cc1` (stereo not given), the TGI in assay [1] was 39.5 µM; in assay [2], 30.3 µM; in [3], 44 µM; in assay [4], 24 µM; in assay [5], 31.8 µM; in assay [6] it was above 24.6 µM. The TGI in assay [7] was found to be 38.9 µM; in [8], 20.7 µM; in [9], 23.6 µM; in assay [10], 30.8 µM.
With `O=[N+]([O-])c1ccc2nc(/C=C(\O)c3ccccc3)c(/C=C(\O)c3ccccc3)nc2c1`, the TGI in [1] was 48.3 µM; in assay [2], above 100 µM; in [3], 53.4 µM; in [4] it was above 100 µM; in assay [5] it was above 100 µM; in [6], 35.8 µM. Moreover, the TGI was above 75.4 µM in assay [7], 38.7 µM in assay [8], 38.2 µM in assay [9] and above 60.4 µM in [10].
With `CN(C)CCCNc1cnc2cc3ccccc3cc2n1`, the TGI in assay [1] came to 52.4 µM; in assay [2] it was 56 µM; in assay [3], 77.1 µM; in assay [4], 38.8 µM; in assay [5], 35.1 µM; in [6] it was 88.1 µM. For the same compound, the TGI was above 100 µM in assay [7], 55.5 µM in [8], 50.2 µM in [9] and above 100 µM in assay [10].
In the case of `Cc1oncc1NC1=CC(=O)C(=O)c2ccccc21`, the TGI came out at 20.6 µM in [1]; 12.2 µM in assay [2]; 30.3 µM in [3]; 37.1 µM in assay [4]; 33.4 µM in [5]; 15 µM in assay [6]. Further, the TGI was 37.8 µM in assay [7], 19.2 µM in [8], 27.5 µM in assay [9] and 17.6 µM in [10].
Regarding `COc1cc(O)c2c(=O)c(OC)c(-c3ccc4c(c3)OCO4)oc2c1OC`, the TGI in assay [1], in assay [2], in assay [3], in [4], in assay [5] and in assay [6] was above 50 µM in each case. For the same compound, the TGI in assay [7], in assay [8], in [9] and in assay [10] was above 50 µM in each case.
In the case of `COP(=O)(OC)c1ccc(NCc2cc(O)ccc2O)cc1`, the TGI in [1] is 35.2 µM; in assay [2], 50.2 µM; in assay [3] it was 43.6 µM; in [4], above 64.6 µM; in assay [5], 51.6 µM; in assay [6] it was above 95.3 µM. For the same compound, the TGI in assay [7] is above 100 µM; in assay [8] it was above 71.8 µM; in assay [9], 74.9 µM; in assay [10], above 75.8 µM.
With `COc1ccc(CCNC(=O)CCCCCO)cc1OC`, the TGI in assay [1], in [2], in [3], in assay [4], in assay [5] and in assay [6] was above 100 µM in each case. The TGI in assay [7], in assay [8], in assay [9] and in [10] was above 100 µM throughout.
Regarding `NC(=O)c1ncn2c(=O)n(CCl)nnc12`, the TGI in [1], in assay [2], in assay [3], in assay [4], in assay [5] and in assay [6] was above 100 µM each time. The TGI in [7], in [8], in assay [9] and in assay [10] was above 100 µM in each case.
On to `COc1cc2cc3c4c(cc(OC)c(OC)c4c2cc1OC)CCN3C(=O)N(C)C`, for which the TGI in assay [1], in assay [2], in [3], in [4], in assay [5] and in [6] was above 100 µM each time. The TGI is above 100 µM in assay [7], above 100 µM in assay [8], above 100 µM in assay [9] and above 10 µM in assay [10].
On to `S=c1nc2sc3c(c2c(Nc2ccc(Br)cc2)[nH]1)CCN(N1CCc2c(sc4nc(=S)[nH]c(Nc5ccc(Br)cc5)c24)C1)C3`, for which the TGI in assay [1], in assay [2], in assay [3], in assay [4], in assay [5] and in assay [6] was above 50 µM throughout. The TGI in assay [7] is above 50 µM; in [8], 44.5 µM; in assay [9], 42.5 µM; in assay [10], above 50 µM.
Regarding `CSC1(SC)N2Cc3ccccc3N=C2C1(c1ccccc1)c1ccccc1`, the TGI was above 100 µM in [1]; above 100 µM in [2]; above 100 µM in [3]; 15.6 µM in assay [4]; 23.2 µM in assay [5]; above 65 µM in [6]. Also, the TGI is above 100 µM in assay [7], 29.4 µM in assay [8], above 48.6 µM in assay [9] and above 100 µM in assay [10].
